# Results as given in patent US9216163B2, “Method of inhibiting angiogenesis” (KYORIN PHARMACEUTICAL CO., LTD, priority 2013, dated 2015).
# Assays:
# HUVEC [1] = experiment: VEGF-induced cell growth of HUVEC (Cell Counting Kit-8); type: cell-based, human; conditions: VEGF 30 ng/mL
# Method: An effect of L-carbocisteine against cell growth promotion by VEGF was evaluated in vitro using HUVEC. HUVEC were inoculated at 2,500 cells/well in a 96-well microplate, and cultured for 24 hours. Subsequently, the HUVEC were cultured in a medium without VEGF and bFGF overnight under a starvation condition. The HUVEC were pretreated with L-carbocisteine (10, 50, 100, and 200 μM) for 15 minutes, and then stimulated by VEGF (30 ng/mL). The number of living cells after 48 hours was determined by Cell Counting Kit-8 (manufactured by DOJINDO LABORATORIES) (n=6). 2) Results
# HUVEC [2] = experiment: VEGF-induced cell migration of HUVEC; type: cell-based, human; conditions: 100 μM pretreatment 15 minutes, VEGF 30 ng/mL, after 12 hours
# Method: An effect of L-carbocisteine against cell migration promoted by VEGF was evaluated in vitro using HUVEC. HUVEC were inoculated in a plate, and cultured until confluent. Subsequently, the HUVEC were cultured in a medium without VEGF and bFGF overnight under starvation condition. The HUVEC were pretreated with L-carbocisteine (100 μM) for 15 minutes. The cells (HUVEC) on the plate were peeled at certain intervals. The cells remaining on the plate were stimulated by VEGF (30 ng/mL). After 12 hours, the distance of cell migration was measured (n=4).
# HUVEC [3] = experiment: VEGF-induced tube formation of HUVEC in collagen; type: cell-based, human; conditions: 100 μM pretreatment 15 minutes, VEGF 30 ng/mL, after 24 hours
# Method: An effect of L-carbocisteine against tube formation promoted by VEGF was evaluated in vitro using HUVEC. A collagen Type 1-C (available from Nitta Gelatin Inc.) lower layer was formed on a 12-well plate, HUVEC were inoculated on the lower layer, and a collagen upper layer was then formed. The HUVEC were pretreated with L-carbocisteine (100 μM) for 15 minutes, and stimulated by VEGF (30 ng/mL). The overall length of the lumen after 24 hours was measured (n=6).
# [4] = tested on: VEGF-induced angiogenesis formed in Matrigel; experiment: VEGF-induced angiogenesis in Matrigel, in vivo mouse model (Evans blue); conditions: male C57BL/6J mouse, 5 μg/g B.W. intraperitoneal twice daily for 14 days
# Method: An effect of L-carbocisteine against angiogenesis promoted by VEGF was evaluated in an in vivo mouse model. A male C57BL/6J mouse (6 weeks) was anesthetized with pentobarbital. Subsequently, 500 μL of BD™ matrix containing 30 ng/mL VEGF was subcutaneously injected into the side of the mouse using a 27-G needle. L-carbocisteine (5 μg per g of body weight of the mouse) or physiologic saline (the same volume) was intraperitoneally administered twice a day, morning and evening, for 14 days. After completion of the administration for 14 days, Evans blue was administered to the mouse via the orbital vein plexus. The mouse was sufficiently perfused with EDTA, and anesthetized with pentobarbital. The matrigel was taken out from the body of the mouse. The weight of taken matrigel was measured, and the matrigel was immersed in a formamide solution and allowed to stand at 37° C. for 48 hours. Following elution of Evans blue in the formamide solution, the weight of eluted Evans blue per unit weight of the matrigel was measured using an absorbance of 620 nm (n=8).
# Erk1/2 = experiment: VEGF-induced phosphorylation of Erk1/2 in HUVEC (Western blot); type: cell-based, human; conditions: 100 μM pretreatment 15 minutes, VEGF 30 ng/mL for 5 or 15 minutes
# Method: (§1) An effect of L-carbocisteine against phosphorylation of Akt, Erk1/2, c-Jun N-terminal kinase (JNK), and p38 MAP kinase accelerated by VEGF stimulation was evaluated using HUVEC. HUVEC were inoculated, and cultured in an EBM-2 medium containing 0.1% FBS overnight under starvation condition. The HUVEC were pretreated with L-carbocisteine (100 μM) for 15 minutes, and stimulated by VEGF (30 ng/mL) for 5 or 15 minutes. Phosphorylation accelerated by VEGF stimulation was evaluated using phosphor-specific antibodies against various kinases by a Western blot method. The level of kinase protein expression was investigated using each antibody after detection of phosphorylation.
# [5] = tested on: c-Jun N-terminal kinase (JNK); experiment: VEGF-induced phosphorylation of JNK in HUVEC (Western blot); type: cell-based, human; conditions: 100 μM pretreatment 15 minutes, VEGF 30 ng/mL for 5 or 15 minutes
# Method: as §1
# p38 MAP kinase = experiment: VEGF-induced phosphorylation of p38 MAP kinase in HUVEC (Western blot); type: cell-based, human; conditions: 100 μM pretreatment 15 minutes, VEGF 30 ng/mL for 5 or 15 minutes
# Method: as §1
# Akt = experiment: VEGF-induced phosphorylation of Akt in HUVEC (Western blot); type: cell-based, human; conditions: 100 μM pretreatment 15 minutes, VEGF 30 ng/mL for 5 or 15 minutes
# Method: as §1
compound,measurement,setting,value
"N[C@@H](CSCC(=O)O)C(=O)O [L-carbocisteine, S-(carboxymethyl)-L-cysteine]","growth suppressive effect, concentration dependence","HUVEC [1]; 10, 50, 100 and 200 μM, 48 hours",concentration-dependent
same,endothelial cell growth promoted by VEGF,"HUVEC [1]; pretreatment with 100 μM or more for 15 minutes, living cells after 48 hours",significantly suppressed
same,migration promoted by VEGF (distance of cell migration),HUVEC [2],significantly suppressed
same,tube formation promoted by VEGF (overall length of the lumen),HUVEC [3],significantly suppressed
same,vascular density in the matrigel,[4],markedly decreased
same,accelerated phosphorylation of Erk1/2,Erk1/2,specifically suppressed
same,accelerated phosphorylation of JNK,[5],only accelerated phosphorylation of Erk1/2 was specifically suppressed
same,accelerated phosphorylation of p38 MAP kinase,p38 MAP kinase,only accelerated phosphorylation of Erk1/2 was specifically suppressed
same,accelerated phosphorylation of Akt,Akt,only accelerated phosphorylation of Erk1/2 was specifically suppressed
